From ChEMBL document CHEMBL4800728, “Data for DCP probe JNJ-54119936” (2021)

Experiments:
[1] = biological target: D(4) dopamine receptor (Homo sapiens) (UniProt P21917); settings: Compound concentration 10.0 uM
[2] = biological target: Serine/threonine-protein kinase PAK 3 (Homo sapiens) (UniProt O75914); assay: PAK3 Invitrogen kinase panel; settings: Compound concentration 10.0 uM
[3] = biological target: Fibroblast growth factor receptor 1 (Homo sapiens) (UniProt P11362); assay: FGFR1 Invitrogen kinase panel; settings: Compound concentration 10.0 uM
Sequence of Fibroblast growth factor receptor 1 (Homo sapiens) (P11362 22-822 limits assumed): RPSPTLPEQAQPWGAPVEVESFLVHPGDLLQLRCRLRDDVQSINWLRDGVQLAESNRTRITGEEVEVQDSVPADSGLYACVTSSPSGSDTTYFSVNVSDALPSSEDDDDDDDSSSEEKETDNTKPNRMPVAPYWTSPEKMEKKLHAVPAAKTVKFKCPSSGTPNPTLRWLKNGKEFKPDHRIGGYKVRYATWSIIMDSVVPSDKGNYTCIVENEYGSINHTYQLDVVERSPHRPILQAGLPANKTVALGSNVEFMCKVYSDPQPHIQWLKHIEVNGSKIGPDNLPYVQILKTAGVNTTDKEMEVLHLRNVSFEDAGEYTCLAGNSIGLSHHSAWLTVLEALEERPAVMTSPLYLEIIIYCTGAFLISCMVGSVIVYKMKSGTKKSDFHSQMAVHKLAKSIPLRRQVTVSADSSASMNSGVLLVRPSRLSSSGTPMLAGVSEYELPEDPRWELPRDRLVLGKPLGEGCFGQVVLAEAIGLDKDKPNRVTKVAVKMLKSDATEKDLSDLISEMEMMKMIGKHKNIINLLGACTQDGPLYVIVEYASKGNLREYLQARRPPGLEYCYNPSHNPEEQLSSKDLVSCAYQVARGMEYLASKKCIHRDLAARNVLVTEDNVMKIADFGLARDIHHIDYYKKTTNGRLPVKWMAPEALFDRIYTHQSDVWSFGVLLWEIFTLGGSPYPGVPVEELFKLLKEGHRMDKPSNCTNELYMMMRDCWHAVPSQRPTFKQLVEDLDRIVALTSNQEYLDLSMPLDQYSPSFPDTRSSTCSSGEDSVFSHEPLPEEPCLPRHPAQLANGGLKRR

[4] = biological target: Kappa-type opioid receptor (Homo sapiens) (UniProt P41145); settings: Compound concentration 10.0 uM
Sequence of Kappa-type opioid receptor (Homo sapiens) (P41145 whole entry): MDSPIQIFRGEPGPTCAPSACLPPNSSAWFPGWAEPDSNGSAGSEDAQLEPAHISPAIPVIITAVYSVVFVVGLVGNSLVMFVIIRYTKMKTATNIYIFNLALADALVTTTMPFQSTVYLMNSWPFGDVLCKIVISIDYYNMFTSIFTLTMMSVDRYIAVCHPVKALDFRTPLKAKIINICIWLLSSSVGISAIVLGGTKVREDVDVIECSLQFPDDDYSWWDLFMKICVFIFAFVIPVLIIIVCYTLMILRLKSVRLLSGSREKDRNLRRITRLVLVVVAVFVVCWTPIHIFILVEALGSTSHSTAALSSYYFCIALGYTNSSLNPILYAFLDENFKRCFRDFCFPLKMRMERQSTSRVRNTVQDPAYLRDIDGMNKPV

[5] = biological target: T1, PXR (nuclear receptor subfamily 1 group I member 2) (Homo sapiens, UniProt O75469); assay: PXR Indigo Bioscience nuclear receptor screen
T1 sequence (O75469 whole entry): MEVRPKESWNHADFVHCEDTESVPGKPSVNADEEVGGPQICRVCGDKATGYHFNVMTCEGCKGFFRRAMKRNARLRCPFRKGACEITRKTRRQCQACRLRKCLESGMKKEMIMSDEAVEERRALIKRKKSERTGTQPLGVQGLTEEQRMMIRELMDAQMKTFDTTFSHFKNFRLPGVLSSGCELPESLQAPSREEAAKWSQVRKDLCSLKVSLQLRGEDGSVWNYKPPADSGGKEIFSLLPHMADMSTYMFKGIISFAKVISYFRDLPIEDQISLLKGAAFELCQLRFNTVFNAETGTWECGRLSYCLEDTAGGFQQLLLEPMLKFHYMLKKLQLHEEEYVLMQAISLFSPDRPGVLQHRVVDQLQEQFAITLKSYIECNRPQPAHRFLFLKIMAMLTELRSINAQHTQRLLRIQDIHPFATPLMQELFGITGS

[6] = biological target: T2, Peroxisome proliferator-activated receptor gamma (Homo sapiens) (UniProt P37231); assay: PPARgamma Indigo Bioscience nuclear receptor screen
T2 sequence (whole entry): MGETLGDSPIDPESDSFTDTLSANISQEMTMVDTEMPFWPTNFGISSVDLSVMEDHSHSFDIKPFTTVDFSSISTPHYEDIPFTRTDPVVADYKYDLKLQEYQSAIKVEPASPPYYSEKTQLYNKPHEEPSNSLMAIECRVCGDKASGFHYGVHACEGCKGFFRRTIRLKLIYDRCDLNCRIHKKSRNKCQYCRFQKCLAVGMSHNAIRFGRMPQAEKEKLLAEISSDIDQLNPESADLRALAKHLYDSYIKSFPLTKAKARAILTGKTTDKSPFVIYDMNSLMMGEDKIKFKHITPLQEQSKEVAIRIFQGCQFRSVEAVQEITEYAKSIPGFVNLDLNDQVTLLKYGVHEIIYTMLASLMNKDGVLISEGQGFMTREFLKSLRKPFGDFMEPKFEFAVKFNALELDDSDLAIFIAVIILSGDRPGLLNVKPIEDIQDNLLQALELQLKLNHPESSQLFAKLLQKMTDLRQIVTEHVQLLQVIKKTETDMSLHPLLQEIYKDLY

[7] = biological target: T3, Estrogen receptor (Homo sapiens) (UniProt P03372); assay: ERalpha Indigo Bioscience nuclear receptor screen
T3 sequence (whole entry): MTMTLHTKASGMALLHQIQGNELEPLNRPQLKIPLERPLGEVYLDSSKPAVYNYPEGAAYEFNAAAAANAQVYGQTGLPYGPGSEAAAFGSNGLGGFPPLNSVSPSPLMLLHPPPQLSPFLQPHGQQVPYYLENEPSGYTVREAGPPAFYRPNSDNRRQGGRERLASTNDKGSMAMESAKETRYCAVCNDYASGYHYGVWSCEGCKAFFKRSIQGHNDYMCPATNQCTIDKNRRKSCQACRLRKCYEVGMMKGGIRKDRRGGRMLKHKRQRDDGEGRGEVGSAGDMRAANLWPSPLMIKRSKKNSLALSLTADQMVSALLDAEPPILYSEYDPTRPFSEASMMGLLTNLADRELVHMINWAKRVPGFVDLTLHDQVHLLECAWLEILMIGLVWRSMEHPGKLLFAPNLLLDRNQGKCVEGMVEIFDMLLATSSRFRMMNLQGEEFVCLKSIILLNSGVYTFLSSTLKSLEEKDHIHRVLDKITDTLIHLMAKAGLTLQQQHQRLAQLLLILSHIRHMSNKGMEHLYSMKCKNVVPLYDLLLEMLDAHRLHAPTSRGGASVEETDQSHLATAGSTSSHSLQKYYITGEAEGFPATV

[8] = biological target: Mitogen-activated protein kinase 12 (Homo sapiens) (UniProt P53778); assay: p38gamma Invitrogen kinase panel; settings: Compound concentration 10.0 uM
Sequence of Mitogen-activated protein kinase 12 (Homo sapiens) (P53778 whole entry): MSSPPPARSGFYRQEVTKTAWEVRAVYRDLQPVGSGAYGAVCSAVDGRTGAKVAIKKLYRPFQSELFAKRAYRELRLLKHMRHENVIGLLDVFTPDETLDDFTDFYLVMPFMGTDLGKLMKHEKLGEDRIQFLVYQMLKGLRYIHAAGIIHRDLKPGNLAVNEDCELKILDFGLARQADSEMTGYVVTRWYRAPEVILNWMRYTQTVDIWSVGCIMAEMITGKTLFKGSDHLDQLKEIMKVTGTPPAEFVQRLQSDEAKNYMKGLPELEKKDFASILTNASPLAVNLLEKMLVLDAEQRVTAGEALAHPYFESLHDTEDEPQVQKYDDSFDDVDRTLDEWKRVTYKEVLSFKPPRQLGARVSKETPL

[9] = biological target: C-C chemokine receptor type 1 (Homo sapiens) (UniProt P32246); assay: CCR1 (h) CEREP screen; settings: Compound concentration 1.0 uM
Sequence of C-C chemokine receptor type 1 (Homo sapiens) (P32246 whole entry): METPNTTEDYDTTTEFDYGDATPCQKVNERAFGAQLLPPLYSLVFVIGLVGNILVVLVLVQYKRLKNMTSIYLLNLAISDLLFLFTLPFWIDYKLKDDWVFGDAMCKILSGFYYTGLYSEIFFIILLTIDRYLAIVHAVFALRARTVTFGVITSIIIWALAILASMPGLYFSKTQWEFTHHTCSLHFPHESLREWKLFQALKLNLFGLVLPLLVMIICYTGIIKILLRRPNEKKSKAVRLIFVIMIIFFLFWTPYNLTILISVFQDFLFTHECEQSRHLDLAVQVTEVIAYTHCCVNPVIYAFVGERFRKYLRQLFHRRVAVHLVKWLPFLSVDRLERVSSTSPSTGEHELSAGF

[10] = biological target: Calcium/calmodulin-dependent protein kinase type II subunit alpha (Homo sapiens) (UniProt Q9UQM7); assay: CaMKIIalpha Invitrogen kinase panel; settings: Compound concentration 10.0 uM
Sequence of Calcium/calmodulin-dependent protein kinase type II subunit alpha (Homo sapiens) (Q9UQM7 whole entry): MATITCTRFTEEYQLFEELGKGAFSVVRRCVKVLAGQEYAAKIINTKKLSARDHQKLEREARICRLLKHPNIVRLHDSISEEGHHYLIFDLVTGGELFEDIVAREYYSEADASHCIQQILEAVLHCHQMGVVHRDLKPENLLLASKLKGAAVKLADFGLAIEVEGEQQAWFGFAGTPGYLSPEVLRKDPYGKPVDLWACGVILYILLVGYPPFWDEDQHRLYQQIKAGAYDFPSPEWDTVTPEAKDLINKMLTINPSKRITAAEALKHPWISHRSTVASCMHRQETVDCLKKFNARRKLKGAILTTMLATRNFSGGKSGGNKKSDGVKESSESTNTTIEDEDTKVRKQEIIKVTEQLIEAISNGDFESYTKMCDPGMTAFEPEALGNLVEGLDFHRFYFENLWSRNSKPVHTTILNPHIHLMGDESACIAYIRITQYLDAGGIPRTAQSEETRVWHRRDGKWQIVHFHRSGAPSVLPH

[11] = biological target: Muscarinic acetylcholine receptor M3 (Homo sapiens) (UniProt P20309); settings: Compound concentration 10.0 uM
[12] = biological target: 5-hydroxytryptamine receptor 2A (Homo sapiens) (UniProt P28223); settings: Compound concentration 10.0 uM
[13] = biological target: 5-hydroxytryptamine receptor 6 (Homo sapiens) (UniProt P50406); settings: Compound concentration 10.0 uM
Sequence of 5-hydroxytryptamine receptor 6 (Homo sapiens) (P50406 whole entry): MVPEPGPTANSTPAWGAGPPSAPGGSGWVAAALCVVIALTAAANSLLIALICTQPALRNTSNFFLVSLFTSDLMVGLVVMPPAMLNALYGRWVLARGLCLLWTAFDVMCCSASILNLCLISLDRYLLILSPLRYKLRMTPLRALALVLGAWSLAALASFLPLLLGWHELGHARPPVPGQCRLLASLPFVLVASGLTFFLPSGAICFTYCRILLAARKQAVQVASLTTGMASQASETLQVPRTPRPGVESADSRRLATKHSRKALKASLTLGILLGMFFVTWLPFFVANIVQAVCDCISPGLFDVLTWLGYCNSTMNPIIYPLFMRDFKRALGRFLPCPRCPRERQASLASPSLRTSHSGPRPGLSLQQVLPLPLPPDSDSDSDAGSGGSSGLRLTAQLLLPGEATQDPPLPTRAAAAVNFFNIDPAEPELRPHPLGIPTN

[14] = biological target: 5-hydroxytryptamine receptor 1D (Homo sapiens) (UniProt P28221); settings: Compound concentration 10.0 uM
Sequence of 5-hydroxytryptamine receptor 1D (Homo sapiens) (P28221 whole entry): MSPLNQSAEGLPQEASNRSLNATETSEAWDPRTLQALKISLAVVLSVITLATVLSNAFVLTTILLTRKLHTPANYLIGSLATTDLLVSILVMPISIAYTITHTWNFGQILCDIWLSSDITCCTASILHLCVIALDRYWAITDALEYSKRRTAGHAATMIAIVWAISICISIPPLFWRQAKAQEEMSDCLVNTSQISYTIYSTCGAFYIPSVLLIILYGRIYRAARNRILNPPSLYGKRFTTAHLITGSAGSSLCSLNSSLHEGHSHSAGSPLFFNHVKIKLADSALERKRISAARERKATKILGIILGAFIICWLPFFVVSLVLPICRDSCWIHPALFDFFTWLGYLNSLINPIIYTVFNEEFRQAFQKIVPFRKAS

[15] = biological target: Nuclear receptor ROR-alpha (Homo sapiens) (UniProt P35398); assay: ThermoFluor Binding Assay (RORA)
[16] = biological target: T4, CAR (nuclear receptor subfamily 1 group I member 3) (Homo sapiens, UniProt Q14994); assay: CAR Indigo Bioscience nuclear receptor screen
T4 sequence (Q14994 whole entry): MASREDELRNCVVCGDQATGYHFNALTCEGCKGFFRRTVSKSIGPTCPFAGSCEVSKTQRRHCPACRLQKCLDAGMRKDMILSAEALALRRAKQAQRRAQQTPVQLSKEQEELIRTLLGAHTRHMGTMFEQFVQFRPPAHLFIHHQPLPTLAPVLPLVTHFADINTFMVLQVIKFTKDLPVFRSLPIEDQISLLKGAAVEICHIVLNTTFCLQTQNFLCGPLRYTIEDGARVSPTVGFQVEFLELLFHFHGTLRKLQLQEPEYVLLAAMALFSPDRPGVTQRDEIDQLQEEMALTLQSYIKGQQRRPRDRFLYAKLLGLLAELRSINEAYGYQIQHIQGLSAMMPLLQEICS

[17] = biological target: D(2) dopamine receptor (Homo sapiens) (UniProt P14416); assay: D2S (h) CEREP screen; settings: Compound concentration 1.0 uM
[18] = biological target: Estrogen receptor beta (Homo sapiens) (UniProt Q92731); assay: ERbeta Indigo Bioscience nuclear receptor screen
Sequence of Estrogen receptor beta (Homo sapiens) (Q92731 whole entry): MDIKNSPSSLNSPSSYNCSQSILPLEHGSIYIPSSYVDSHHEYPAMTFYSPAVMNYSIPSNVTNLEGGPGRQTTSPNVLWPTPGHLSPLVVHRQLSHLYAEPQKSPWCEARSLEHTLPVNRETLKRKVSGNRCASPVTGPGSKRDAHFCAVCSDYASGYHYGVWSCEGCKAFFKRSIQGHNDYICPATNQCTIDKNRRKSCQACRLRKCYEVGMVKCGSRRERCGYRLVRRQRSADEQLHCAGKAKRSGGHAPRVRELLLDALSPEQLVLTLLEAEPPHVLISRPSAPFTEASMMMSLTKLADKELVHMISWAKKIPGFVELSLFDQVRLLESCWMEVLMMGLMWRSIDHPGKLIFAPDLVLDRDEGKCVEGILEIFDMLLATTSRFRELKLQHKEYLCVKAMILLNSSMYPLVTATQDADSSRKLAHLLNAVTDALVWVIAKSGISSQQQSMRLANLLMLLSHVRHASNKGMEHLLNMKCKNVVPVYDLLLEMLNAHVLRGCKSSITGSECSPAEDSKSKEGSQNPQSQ

[19] = biological target: Ribosomal protein S6 kinase alpha-2 (Homo sapiens) (UniProt Q15349); assay: Rsk3 Invitrogen kinase panel; settings: Compound concentration 10.0 uM
Sequence of Ribosomal protein S6 kinase alpha-2 (Homo sapiens) (Q15349 whole entry): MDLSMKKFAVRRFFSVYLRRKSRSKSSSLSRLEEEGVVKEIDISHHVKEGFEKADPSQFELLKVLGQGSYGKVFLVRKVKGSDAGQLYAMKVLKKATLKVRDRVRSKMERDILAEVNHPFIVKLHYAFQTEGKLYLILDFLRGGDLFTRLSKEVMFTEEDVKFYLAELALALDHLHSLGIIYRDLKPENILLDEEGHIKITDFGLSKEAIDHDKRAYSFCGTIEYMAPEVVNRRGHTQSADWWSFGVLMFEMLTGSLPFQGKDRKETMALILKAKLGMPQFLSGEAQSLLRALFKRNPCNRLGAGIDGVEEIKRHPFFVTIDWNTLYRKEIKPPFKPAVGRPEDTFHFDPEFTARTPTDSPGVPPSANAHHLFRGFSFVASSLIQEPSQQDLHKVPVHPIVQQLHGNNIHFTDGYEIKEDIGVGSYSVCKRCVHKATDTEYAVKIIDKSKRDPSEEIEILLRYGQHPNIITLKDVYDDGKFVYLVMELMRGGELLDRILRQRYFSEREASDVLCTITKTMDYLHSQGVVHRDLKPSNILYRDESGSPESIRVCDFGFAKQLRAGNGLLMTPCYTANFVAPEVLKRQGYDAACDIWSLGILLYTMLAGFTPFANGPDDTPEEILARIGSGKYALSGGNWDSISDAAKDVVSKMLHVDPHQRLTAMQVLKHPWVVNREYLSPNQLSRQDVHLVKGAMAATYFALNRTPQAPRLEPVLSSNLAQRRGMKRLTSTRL

Sequence of D(4) dopamine receptor (Homo sapiens) (P21917 whole entry): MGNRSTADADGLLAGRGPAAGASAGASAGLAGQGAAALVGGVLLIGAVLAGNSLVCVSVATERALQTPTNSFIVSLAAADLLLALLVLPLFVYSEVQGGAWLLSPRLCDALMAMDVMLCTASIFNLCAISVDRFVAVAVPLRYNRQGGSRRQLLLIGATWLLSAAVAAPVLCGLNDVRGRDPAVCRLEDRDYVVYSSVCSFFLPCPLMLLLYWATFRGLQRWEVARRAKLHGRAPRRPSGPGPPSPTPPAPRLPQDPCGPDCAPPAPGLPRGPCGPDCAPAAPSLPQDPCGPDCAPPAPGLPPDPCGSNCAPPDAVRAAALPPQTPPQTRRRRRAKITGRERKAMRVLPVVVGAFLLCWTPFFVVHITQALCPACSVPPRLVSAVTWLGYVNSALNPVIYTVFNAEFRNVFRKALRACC

Compound: COc1nc2ccc([C@@](O)(c3ccccc3)C3CCN(C(C)=O)CC3)cc2c(Cl)c1Cc1ccc(-n2cccn2)cc1 [JNJ-54119936]
- inhibition [1]: -5.45%
- inhibition [2]: 6%
- inhibition [3]: -2%
- inhibition [4]: -6%
- inhibition at 0.3 µM ([5]; compound concentration 0.3 uM): -7.63% (not active)
- inhibition at 1 µM ([5]; compound concentration 1 uM): -26.4% (not active)
- inhibition at 3 µM ([5]; compound concentration 3 uM): 1.01% (not active)
- inhibition ([6]; Compound concentration 0.3 uM): -0.894%
- inhibition ([6]; Compound concentration 3.0 uM): -6.01%
- inhibition ([7]; Compound concentration 0.3 uM): -1.2%
- inhibition ([7]; Compound concentration 1.0 uM): 0.61%
- inhibition ([7]; Compound concentration 3.0 uM): -3.01%
- inhibition [8]: 2%
- inhibition [9]: 17%
- inhibition [10]: 14%
- inhibition [11]: 0.49%
- inhibition [12]: 6.87%
- inhibition [13]: 8.8%
- inhibition [14]: 5.9%
- qKD [15]: > 75 µM
- inhibition at 0.3 µM ([16]; compound concentration 0.3 uM): -0.121% (not active)
- inhibition at 1 µM ([16]; compound concentration 1 uM): -0.752% (not active)
- inhibition at 3 µM ([16]; compound concentration 3 uM): 2.37% (not active)
- inhibition [17]: 10%
- inhibition ([18]; Compound concentration 0.3 uM): 1.77%
- inhibition ([18]; Compound concentration 1.0 uM): 7.87%
- inhibition ([18]; Compound concentration 3.0 uM): 14.8%
- inhibition [19]: 11%
